One assay addresses Serine protease 1 (Homo sapiens, UniProt P07477). Put plainly: Compound was evaluated for its inhibitory potency against trypsin.
A further assay addresses Prothrombin (Homo sapiens, UniProt P00734). The experiment in a line: Compound was evaluated for its inhibitory potency against thrombin.
The target of the next assay is Tryptase (Homo sapiens, UniProt Q9BZJ3+Q15661+Q9NRR2). Put plainly: Evaluated for its inhibitory potency against tryptase. In kind it is protein assay.
A further assay deals with Plasminogen (Homo sapiens, UniProt P00747). The experiment in a line: Compound was evaluated for its inhibitory potency against plasmin.
Sequence of Plasminogen (P00747 97-580 limits assumed): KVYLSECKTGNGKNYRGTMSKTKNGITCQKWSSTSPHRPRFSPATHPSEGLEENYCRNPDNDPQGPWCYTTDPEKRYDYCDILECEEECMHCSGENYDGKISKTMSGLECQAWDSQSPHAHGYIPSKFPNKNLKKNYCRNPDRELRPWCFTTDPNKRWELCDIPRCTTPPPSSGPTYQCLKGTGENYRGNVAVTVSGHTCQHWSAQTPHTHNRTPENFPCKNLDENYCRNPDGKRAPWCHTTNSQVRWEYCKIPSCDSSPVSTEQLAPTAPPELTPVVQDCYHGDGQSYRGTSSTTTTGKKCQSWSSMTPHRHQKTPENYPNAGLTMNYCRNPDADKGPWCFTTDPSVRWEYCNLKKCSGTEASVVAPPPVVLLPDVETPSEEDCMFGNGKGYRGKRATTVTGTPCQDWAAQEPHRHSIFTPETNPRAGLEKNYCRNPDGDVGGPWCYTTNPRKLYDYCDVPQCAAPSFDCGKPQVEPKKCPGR
Sequence of Plasminogen (P00747 581-810 limits assumed): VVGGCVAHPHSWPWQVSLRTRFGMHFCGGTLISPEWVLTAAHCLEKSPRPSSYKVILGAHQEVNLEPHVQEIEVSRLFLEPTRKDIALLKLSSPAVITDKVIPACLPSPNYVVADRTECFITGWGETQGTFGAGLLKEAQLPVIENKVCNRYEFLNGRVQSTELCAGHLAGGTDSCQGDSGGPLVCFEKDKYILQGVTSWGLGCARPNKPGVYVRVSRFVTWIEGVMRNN

Among the data in ChEMBL document CHEMBL1132784, “Dibasic inhibitors of human mast cell tryptase. Part 2: structure-activity relationships and requirements for potent activity” (Bioorg Med Chem Lett, 2000) are Ki values, retold here.

Sequence of Serine protease 1 (P07477 whole entry): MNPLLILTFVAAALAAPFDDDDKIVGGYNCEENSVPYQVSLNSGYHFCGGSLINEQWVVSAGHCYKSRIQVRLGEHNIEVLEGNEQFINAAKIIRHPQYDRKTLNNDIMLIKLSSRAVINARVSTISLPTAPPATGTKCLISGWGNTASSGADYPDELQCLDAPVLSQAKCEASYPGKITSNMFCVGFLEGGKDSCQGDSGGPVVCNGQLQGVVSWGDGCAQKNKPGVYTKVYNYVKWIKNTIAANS

The term Ki denotes a dissociation constant, usually derived from enzyme kinetics or from competition with a known ligand. A high value points to lower affinity. For the compound `N=C(N)c1ccc(CNC(=O)N2CCN(C(=O)O[C@H]3CCC[C@@H](OC(=O)N4CCN(C(=O)NCc5ccc(C(=N)N)cc5)CC4)CCC3)CC2)cc1`, the Ki at Serine protease 1 amounted to 25 µM; at Prothrombin, 60 µM; on Tryptase it was 0.009 µM; on Plasminogen, 134 µM.

In the case of `N=C(N)Nc1ccc(CNC(=O)N2CCN(C(=O)O[C@H]3CCC[C@@H](OC(=O)N4CCN(C(=O)CCSc5ccncc5)CC4)CCC3)CC2)cc1`, the Ki was 156 µM on Serine protease 1, 741 µM on Prothrombin, 0.08 µM on Tryptase and > 1000 µM at Plasminogen.

As to `N=C(N)Nc1ccc(CNC(=O)N2CCN(C(=O)CCCCC(=O)N3CCN(C(=O)NCc4ccc(NC(=N)N)cc4)CC3)CC2)cc1`, the Ki was 54 µM at Serine protease 1, > 1000 µM at Prothrombin, 0.044 µM at Tryptase and 316 µM on Plasminogen.

As for `CNCc1ccc(CNC(=O)N2CCN(C(=O)O[C@H]3CCC[C@@H](OC(=O)N4CCN(C(=O)NCc5ccc(CNC)cc5)CC4)CCC3)CC2)cc1`, the Ki at Serine protease 1 is > 1000 µM; at Prothrombin, > 1000 µM; at Tryptase it was 6 µM; at Plasminogen it was > 1000 µM.

For the compound `NCCCCCCNC(=O)N1CCN(C(=O)O[C@H]2CCC[C@@H](OC(=O)N3CCN(C(=O)NCCCCCCN)CC3)CCC2)CC1`, the Ki at Serine protease 1 is > 1000 µM; at Prothrombin, > 1000 µM; on Tryptase, 1 µM; at Plasminogen, > 1000 µM.

On to `NCCCCCNC(=O)N1CCN(C(=O)O[C@H]2CCC[C@@H](OC(=O)N3CCN(C(=O)NCCCCCN)CC3)CCC2)CC1`, for which the Ki at Serine protease 1 is 754 µM; at Prothrombin, > 1000 µM; on Tryptase, 0.011 µM; at Plasminogen, > 1000 µM.

On to `CC(=N)N1CCC(CNC(=O)N2CCN(C(=O)O[C@H]3CCC[C@@H](OC(=O)N4CCN(C(=O)NCC5CCN(C(C)=N)CC5)CC4)CCC3)CC2)CC1`, for which the Ki on Serine protease 1, at Prothrombin, on Tryptase and on Plasminogen was > 1000 µM each time.

Regarding `N=C(N)Nc1ccc(CC(=O)N2CCN(C(=O)O[C@H]3CCC[C@@H](OC(=O)N4CCN(C(=O)Cc5ccc(NC(=N)N)cc5)CC4)CCC3)CC2)cc1`, the Ki on Serine protease 1 was 82 µM; on Prothrombin, 255 µM; on Tryptase, 0.0005 µM; at Plasminogen, > 1000 µM.

On to `N=C(N)c1ccc(CCNC(=O)N2CCN(C(=O)O[C@H]3CCC[C@@H](OC(=O)N4CCN(C(=O)NCCc5ccc(C(=N)N)cc5)CC4)CCC3)CC2)cc1`, for which the Ki at Serine protease 1 was found to be 66 µM; at Prothrombin it was 36 µM; on Tryptase it was 0.44 µM; on Plasminogen, 60 µM.

As to `N=C(N)c1ccc(CC(=O)N2CCN(C(=O)O[C@H]3CCC[C@@H](OC(=O)N4CCN(C(=O)Cc5ccc(C(=N)N)cc5)CC4)CCC3)CC2)cc1`, the Ki at Serine protease 1 came out at 11 µM; at Prothrombin it was 34 µM; at Tryptase it was 0.0002 µM; at Plasminogen, 155 µM.

As to `N=C(N)Nc1ccc(CNC(=O)N2CCN(C(=O)O[C@H]3CCC[C@@H](OC(=O)N4CCN(C(=O)CCNc5ccncc5)CC4)CCC3)CC2)cc1`, the inhibition constant Ki was 111 µM at Serine protease 1, > 1000 µM at Prothrombin, 0.097 µM at Tryptase and > 1000 µM at Plasminogen.

Turning to `N=C(N)Nc1ccc(CNC(=O)N2CCN(C(=O)O[C@H]3CCC[C@@H](OC(=O)N4CCN(C(=O)NCCCCCN)CC4)CCC3)CC2)cc1`, the Ki at Serine protease 1 was 129 µM; on Prothrombin, > 1000 µM; on Tryptase it was 0.0005 µM; on Plasminogen, > 1000 µM.

With `N=C(N)Nc1ccc(CNC(=O)N2CCN(C(=O)OCC34CCC(COC(=O)N5CCN(C(=O)NCc6ccc(NC(=N)N)cc6)CC5)(CC3)CC4)CC2)cc1`, the Ki at Serine protease 1 came out at 20 µM; on Prothrombin, 123 µM; on Tryptase, 0.0004 µM; at Plasminogen, 3 µM.

Consider `O=C(CCCC1CCNCC1)N1CCN(C(=O)O[C@H]2CCC[C@@H](OC(=O)N3CCN(C(=O)CCCC4CCNCC4)CC3)CCC2)CC1`, for which the Ki at Serine protease 1 was > 1000 µM; at Prothrombin, > 1000 µM; on Tryptase it was 0.1 µM; on Plasminogen it was > 1000 µM.

With `N=C(N)N1CCC(CC(=O)N2CCN(C(=O)O[C@H]3CCC[C@@H](OC(=O)N4CCN(C(=O)CC5CCN(C(=N)N)CC5)CC4)CCC3)CC2)CC1`, the Ki on Serine protease 1 is 445 µM; at Prothrombin, 130 µM; at Tryptase it was 0.005 µM; at Plasminogen, > 1000 µM.

With `N=C(N)Nc1ccc(CNC(=O)N2CCN(C(=O)CCCCCCCC(=O)N3CCN(C(=O)NCc4ccc(NC(=N)N)cc4)CC3)CC2)cc1`, the Ki at Serine protease 1 was 29 µM; on Prothrombin, > 1000 µM; on Tryptase, 0.0005 µM; at Plasminogen, > 1000 µM.

On to `O=C(CCCCCn1ccnc1)N1CCN(C(=O)O[C@H]2CCC[C@@H](OC(=O)N3CCN(C(=O)CCCCCn4ccnc4)CC3)CCC2)CC1`, for which the Ki was > 1000 µM on Serine protease 1, > 1000 µM at Prothrombin, 46 µM on Tryptase and > 1000 µM at Plasminogen.

In the case of `N=C(N)Nc1ccc(CNC(=O)N2CCN(C(=O)OC[C@H]3C4C=CC(CC4)[C@@H]3COC(=O)N3CCN(C(=O)NCc4ccc(NC(=N)N)cc4)CC3)CC2)cc1`, the Ki on Serine protease 1 was found to be 15 µM; at Prothrombin, 138 µM; at Tryptase, 0.008 µM; on Plasminogen it was 700 µM.

As to `N=C(N)Nc1ccc(CNC(=O)N2CCN(C(=O)O[C@H]3CCC[C@@H](OC(=O)N4CCN(C(=O)CCc5cnc(N)nc5)CC4)CCC3)CC2)cc1`, the inhibition constant (Ki) on Serine protease 1 is 165 µM; on Prothrombin it was > 1000 µM; on Tryptase it was 41 µM; at Plasminogen, > 1000 µM.

With `CC(=N)N1CCC(CCNC(=O)N2CCN(C(=O)O[C@H]3CCC[C@@H](OC(=O)N4CCN(C(=O)NCCC5CCN(C(C)=N)CC5)CC4)CCC3)CC2)CC1`, the inhibition constant (Ki) at Serine protease 1 was > 1000 µM; at Prothrombin, > 1000 µM; at Tryptase it was 255 µM; on Plasminogen, > 1000 µM.

As for `N=C(N)Nc1ccc(CNC(=O)N2CCN(C(=O)O[C@H]3CCC[C@@H](OC(=O)N4CCN(C(=O)NCC5CCNCC5)CC4)CCC3)CC2)cc1`, the Ki on Serine protease 1 was 148 µM; on Prothrombin, > 1000 µM; on Tryptase it was 0.07 µM; on Plasminogen, > 1000 µM.

Consider `N=C(N)Nc1ccc(CNC(=O)N2CCN(C(=O)OCC34CC5CC(C3)CC(COC(=O)N3CCN(C(=O)NCc6ccc(NC(=N)N)cc6)CC3)(C5)C4)CC2)cc1`, for which the Ki at Serine protease 1 came out at 17 µM; on Prothrombin, 363 µM; on Tryptase it was 0.01 µM; on Plasminogen, 576 µM.

Regarding `N=C(N)Nc1ccc(CNC(=O)N2CCN(C(=O)O[C@H]3CCC[C@@H](OC(=O)N4CCN(C(=O)NCc5ccc(N)cc5)CC4)CCC3)CC2)cc1`, the Ki on Serine protease 1 is 126 µM; at Prothrombin, > 1000 µM; on Tryptase it was 0.82 µM; on Plasminogen, > 1000 µM.
